# Results published in patent US10906897B2, “Microbiocidal heterobicyclic derivatives” (priority 2015, dated 2021).
# Columns and labels:
# [1] = tested on: Magnaporthe grisea (Pyricularia oryzae); assay: microbe, parasite or virus in culture; assay type: cell-based; settings: read-out: control of Magnaporthe grisea
# [2] = tested on: Botryotinia fuckeliana (Botrytis cinerea); assay: Botryotinia fuckeliana (Botrytis cinerea) / liquid culture (Gray mould); assay type: cell-based; settings: growth inhibition photometrically 3-4 days after application, compared to untreated control
# [3] = tested on: Monographella nivalis (Microdochium nivale); assay: Monographella nivalis (Microdochium nivale) / liquid culture (foot rot cereals); assay type: cell-based; settings: 96 h, growth inhibition photometrically 4-5 days after application, compared to untreated control
# [4] = tested on: Glomerella lagenarium (Colletotrichum lagenarium); assay: Glomerella lagenarium (Colletotrichum lagenarium) / liquid culture (Anthracnose); assay type: cell-based; settings: Colletotrichum orbiculare, growth inhibition photometrically 3-4 days after application, compared to untreated control
# Gaeumannomyces graminis = Gaeumannomyces graminis / liquid culture (Take-all of cereals); assay type: cell-based; settings: growth inhibition photometrically 4-5 days after application, compared to untreated control
# Fusarium culmorum = assay: microbe, parasite or virus in culture; assay type: cell-based; settings: read-out: control of Fusarium culmorum
# [5] = tested on: Magnaporthe grisea (Pyricularia oryzae); assay: whole plant or invertebrate; assay type: in vivo; settings: foliar, read-out: control of Magnaporthe grisea
compound,measurement,setting,value
"CC1(C)N=C(c2cnc3c(Cl)c(Cl)ccn23)c2ccccc2C1(F)F [Compound E-56, 1-(7,8-dichloroimidazo[1,2-a]pyridin-3-yl)-4,4-difluoro-3,3-dimethyl-isoquinoline]",inhibition of growth at 60 ppm,[1],≥ 80%
same,inhibition of growth at 20 ppm,[2],≥ 80%
same,melting point,,> 210 °C
"Cc1cccn2c(C3=NCC4(CCC4)c4ccccc43)cnc12 [Compound E-53, 1-(8-methylimidazo[1,2-a]pyridin-3-yl)spiro[3H-isoquinoline-4,1′-cyclobutane]]",inhibition of growth at 20 ppm,[3],≥ 80%
same,inhibition of growth at 60 ppm,[1],≥ 80%
same,inhibition of growth at 20 ppm,[2],≥ 80%
same,melting point,,127 to 129 °C
"COc1cccn2c(C3=NC(C)(C)C(C)(C)c4c(F)cccc43)cnc12 [Compound E-24, 5-fluoro-1-(8-methoxyimidazo[1,2-a]pyridin-3-yl)-3,3,4,4-tetramethyl-isoquinoline]",inhibition of growth at 20 ppm,[3],≥ 80%
same,inhibition of growth at 20 ppm,[4],≥ 80%
same,inhibition of growth at 20 ppm,[2],≥ 80%
same,melting point,,130 °C
"CC1(C)Cc2ccccc2C(c2cnc3c(Br)cccn23)=N1 [Compound E-41, 1-(8-bromoimidazo[1,2-a]pyridin-3-yl)-3,3-dimethyl-4H-isoquinoline]",inhibition of growth at 20 ppm,Gaeumannomyces graminis,≥ 80%
same,melting point,,132 to 133 °C
"CC1(C)N=C(c2cnc3c(Br)cccn23)c2cccc(F)c2C1(C)C [Compound E-8, 1-(8-bromoimidazo[1,2-a]pyridin-3-yl)-5-fluoro-3,3,4,4-tetramethyl-isoquinoline]",inhibition of growth at 20 ppm,Fusarium culmorum,≥ 80%
same,pest or weed control at 200 ppm,[5],≥ 50%
same,inhibition of growth at 20 ppm,[4],≥ 80%
same,inhibition of growth at 20 ppm,[2],≥ 80%
"Cc1ccn2c(C3=NC(C)(C)C(C)(C)c4c(F)cccc43)cnc2c1Cl [Compound E-47, 1-(8-chloro-7-methyl-imidazo[1,2-a]pyridin-3-yl)-5-fluoro-3,3,4,4-tetramethyl-isoquinoline]",inhibition of growth at 20 ppm,Fusarium culmorum,≥ 80%
same,inhibition of growth at 20 ppm,[4],≥ 80%
same,inhibition of growth at 20 ppm,[2],≥ 80%
same,melting point,,185 to 186 °C
"CC1(C)N=C(c2cnc3c(Cl)cccn23)c2cccc(F)c2C1(C)C [Compound E-32, 1-(8-chloroimidazo[1,2-a]pyridin-3-yl)-5-fluoro-3,3,4,4-tetramethyl-isoquinoline]",inhibition of growth at 20 ppm,Fusarium culmorum,≥ 80%
same,inhibition of growth at 20 ppm,[4],≥ 80%
same,inhibition of growth at 20 ppm,[2],≥ 80%
same,melting point,,167 to 168 °C
"CC1(C)Cc2c(Cl)cccc2C(c2cnc3c(OC(F)F)cccn23)=N1 [Compound E-15, 5-chloro-1-[8-(difluoromethoxy)imidazo [1,2-a]pyridin-3-yl]-3,3-dimethyl-4H-isoquinoline]",inhibition of growth at 20 ppm,[3],≥ 80%
same,melting point,,114 to 115 °C
"CC1(C)N=C(c2cnn3cc(C#N)ccc23)c2ccccc2C1(F)F [Compound E-85, 3-(4,4-difluoro-3,3-dimethyl-1-isoquinolyl)pyrazolo[1,5-a]pyridine-6-carbonitrile]",inhibition of growth at 60 ppm,[1],≥ 80%
same,inhibition of growth at 20 ppm,[2],≥ 80%
same,melting point,,191 to 194 °C
"CC1(C)N=C(c2cnc3ccccn23)c2cccc(F)c2C1(C)C [Compound E-1, 5-fluoro-1-imidazo[1,2-a]pyridin-3-yl-3,3,4,4-tetramethyl-isoquinoline]",inhibition of growth at 20 ppm,Fusarium culmorum,≥ 80%
same,inhibition of growth at 20 ppm,[4],≥ 80%
same,inhibition of growth at 20 ppm,Gaeumannomyces graminis,≥ 80%
same,inhibition of growth at 20 ppm,[2],≥ 80%
same,melting point,,129 to 130 °C
"CCc1cccn2c(C3=NC(C)(C)C(C)(C)c4c(F)cccc43)cnc12 [Compound E-21, 1-(8-ethylimidazo[1,2-a]pyridin-3-yl)-5-fluoro-3,3,4,4-tetramethyl-isoquinoline]",inhibition of growth at 20 ppm,[3],≥ 80%
same,inhibition of growth at 20 ppm,Fusarium culmorum,≥ 80%
same,inhibition of growth at 20 ppm,[4],≥ 80%
same,inhibition of growth at 20 ppm,[2],≥ 80%
"Cc1c(Br)ccc2c(C3=NC(C)(C)C(=O)c4ccccc43)cnn12 [Compound E-78, 1-(6-bromo-7-methyl-pyrazolo[1,5-a]pyridin-3-yl)-3,3-dimethyl-isoquinolin-4-one]",inhibition of growth at 20 ppm,[3],≥ 80%
same,inhibition of growth at 60 ppm,[1],≥ 80%
same,inhibition of growth at 20 ppm,Fusarium culmorum,≥ 80%
same,inhibition of growth at 20 ppm,[4],≥ 80%
same,inhibition of growth at 20 ppm,[2],≥ 80%
same,melting point,,166 to 168 °C
"CC1(C)N=C(c2cnc3c(Br)cccn23)c2cccc(F)c2C1(F)F [Compound E-37, 1-(8-bromoimidazo[1,2-a]pyridin-3-yl)-4,4,5-trifluoro-3,3-dimethyl-isoquinoline]",inhibition of growth at 20 ppm,[4],≥ 80%
same,inhibition of growth at 20 ppm,Gaeumannomyces graminis,≥ 80%
"Cc1ccn2c(C3=NC(C)(C)C(C)(C)c4c(F)cccc43)cnc2c1 [Compound E-31, 5-fluoro-3,3,4,4-tetramethyl-1-(7-methylimidazo[1,2-a]pyridin-3-yl)isoquinoline]",inhibition of growth at 20 ppm,Fusarium culmorum,≥ 80%
same,pest or weed control at 200 ppm,[5],≥ 50%
same,inhibition of growth at 20 ppm,[4],≥ 80%
same,inhibition of growth at 20 ppm,[2],≥ 80%
"Cc1ccc2c(C3=NC(C)(C)C(=O)c4cc(F)ccc43)cnn2c1C [Compound E-74, 1-(6,7-dimethylpyrazolo[1,5-a]pyridin-3-yl)-6-fluoro-3,3-dimethyl-isoquinolin-4-one]",inhibition of growth at 60 ppm,[1],≥ 80%
same,inhibition of growth at 20 ppm,Fusarium culmorum,≥ 80%
same,inhibition of growth at 20 ppm,[4],≥ 80%
same,inhibition of growth at 20 ppm,[2],≥ 80%
same,melting point,,168 to 170 °C
"CC1(C)N=C(c2cnc3c(C#N)cccn23)c2cccc(F)c2C1(C)C [Compound E-38, 3-(5-fluoro-3,3,4,4-tetramethyl-1-isoquinolyl)imidazo[1,2-a]pyridine-8-carbonitrile]",inhibition of growth at 20 ppm,[3],≥ 80%
same,inhibition of growth at 20 ppm,[4],≥ 80%
same,inhibition of growth at 20 ppm,Gaeumannomyces graminis,≥ 80%
same,inhibition of growth at 20 ppm,[2],≥ 80%
"CC1(C)N=C(c2cnc3c(C(F)(F)F)cccn23)c2cccc(F)c2C1(C)C [Compound E-29, 5-fluoro-3,3,4,4-tetramethyl-1-[8-(trifluoromethyl)imidazo [1,2-a]pyridin-3-yl]isoquinoline]",inhibition of growth at 20 ppm,[3],≥ 80%
same,inhibition of growth at 20 ppm,[4],≥ 80%
same,inhibition of growth at 20 ppm,[2],≥ 80%
same,melting point,,141 to 142 °C
"Cc1cccn2c(C3=NC(C)(C)C(F)(F)c4ccccc43)cnc12 [Compound E-45, 4,4-difluoro-3,3-dimethyl-1-(8-methylimidazo[1,2-a]pyridin-3-yl)isoquinoline]",inhibition of growth at 20 ppm,[3],≥ 80%
same,inhibition of growth at 20 ppm,Fusarium culmorum,≥ 80%
same,pest or weed control at 200 ppm,[5],≥ 50%
same,inhibition of growth at 20 ppm,[4],≥ 80%
same,inhibition of growth at 20 ppm,[2],≥ 80%
"C#Cc1ccc2c(C3=NC(C)(C)C(F)(F)c4ccccc43)cnn2c1 [Compound E-90, 1-(6-ethynylpyrazolo[1,5-a]pyridin-3-yl)-4,4-difluoro-3,3-dimethyl-isoquinoline]",inhibition of growth at 20 ppm,[3],≥ 80%
same,inhibition of growth at 60 ppm,[1],≥ 80%
same,inhibition of growth at 20 ppm,[4],≥ 80%
same,inhibition of growth at 20 ppm,Gaeumannomyces graminis,≥ 80%
same,melting point,,145 to 147 °C
"CC1(C)N=C(c2cnn3ccccc23)c2cccc(F)c2C1(C)C [Compound E-58, 5-fluoro-3,3,4,4-tetramethyl-1-pyrazolo[1,5-a]pyridin-3-yl-isoquinoline]",inhibition of growth at 20 ppm,[4],≥ 80%
same,inhibition of growth at 20 ppm,Gaeumannomyces graminis,≥ 80%
same,inhibition of growth at 20 ppm,[2],≥ 80%
same,melting point,,124 to 126 °C
"COc1ccc2ncc(C3=NC(C)(C)C(C)(C)c4c(F)cccc43)n2c1 [Compound E-25, 5-fluoro-1-(6-methoxyimidazo[1,2-a]pyridin-3-yl)-3,3,4,4-tetramethyl-isoquinoline]",inhibition of growth at 20 ppm,Gaeumannomyces graminis,≥ 80%
same,melting point,,214 to 215 °C
